What all share (assay type): cell-based
One test deals with T1, human M1 receptor (Homo sapiens, UniProt P11229).
T1 sequence (P11229 1-460): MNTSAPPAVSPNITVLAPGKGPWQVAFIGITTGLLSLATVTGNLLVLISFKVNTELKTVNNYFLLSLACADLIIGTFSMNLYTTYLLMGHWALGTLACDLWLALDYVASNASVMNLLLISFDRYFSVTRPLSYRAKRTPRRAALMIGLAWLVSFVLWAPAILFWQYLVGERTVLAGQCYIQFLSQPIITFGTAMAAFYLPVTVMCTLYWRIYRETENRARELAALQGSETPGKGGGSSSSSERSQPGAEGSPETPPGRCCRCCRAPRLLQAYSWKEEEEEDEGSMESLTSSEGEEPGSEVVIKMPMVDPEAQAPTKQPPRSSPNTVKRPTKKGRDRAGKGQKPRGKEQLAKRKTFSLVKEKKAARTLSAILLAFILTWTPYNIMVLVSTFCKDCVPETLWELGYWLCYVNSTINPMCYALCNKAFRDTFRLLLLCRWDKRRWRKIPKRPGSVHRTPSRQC
As to the kind of experiment: In vitro functional assay of muscarinic acetylcholine receptor activity (aequorin calcium flux, antagonist mode vs EC80 acetylcholine), M1. Put shortly:
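CHO-K1 cells stably co-expressing human M1 and aequorin were loaded with 5 uM coelenterazine h for 4 h at room temperature in the dark. IC50 came from the drop in luminescence.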

The target of the next test is T2, M2 (Homo sapiens, UniProt P08172).
T2 sequence (P08172 1-466): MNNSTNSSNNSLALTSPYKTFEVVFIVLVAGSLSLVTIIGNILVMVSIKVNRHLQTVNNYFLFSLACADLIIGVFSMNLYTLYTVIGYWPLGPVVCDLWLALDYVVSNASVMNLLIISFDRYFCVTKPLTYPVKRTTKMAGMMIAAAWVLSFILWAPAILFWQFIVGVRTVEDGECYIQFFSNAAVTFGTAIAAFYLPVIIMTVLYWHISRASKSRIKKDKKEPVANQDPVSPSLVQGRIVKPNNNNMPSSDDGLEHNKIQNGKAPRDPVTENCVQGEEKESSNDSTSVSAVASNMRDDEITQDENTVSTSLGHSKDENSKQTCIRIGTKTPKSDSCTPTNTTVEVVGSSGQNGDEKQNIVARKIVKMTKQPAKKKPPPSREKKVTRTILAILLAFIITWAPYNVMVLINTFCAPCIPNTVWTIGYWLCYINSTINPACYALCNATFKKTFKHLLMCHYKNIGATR
As to the kind of experiment: In vitro functional assay of muscarinic acetylcholine receptor activity, M2. The settings on record: antagonist IC50 at M2; read-out: M2 IC50.

The target of the next test is M3 (Homo sapiens, UniProt P20309). Put plainly: In vitro functional assay of muscarinic acetylcholine receptor activity, M3.
Where [1] appears, read: CHO-K1 cells stably expressing human M1 receptor with Aequorin, decrease in EC80 acetylcholine response, read-out: M1 IC50.
The mark [2] stands for this setting: antagonist IC50 at M3, read-out: M3 IC50.

pIC50: −log10 of the molar value. Read-outs that look alike come from different tables or passages of the source.

Chain of M3 (P20309 whole entry): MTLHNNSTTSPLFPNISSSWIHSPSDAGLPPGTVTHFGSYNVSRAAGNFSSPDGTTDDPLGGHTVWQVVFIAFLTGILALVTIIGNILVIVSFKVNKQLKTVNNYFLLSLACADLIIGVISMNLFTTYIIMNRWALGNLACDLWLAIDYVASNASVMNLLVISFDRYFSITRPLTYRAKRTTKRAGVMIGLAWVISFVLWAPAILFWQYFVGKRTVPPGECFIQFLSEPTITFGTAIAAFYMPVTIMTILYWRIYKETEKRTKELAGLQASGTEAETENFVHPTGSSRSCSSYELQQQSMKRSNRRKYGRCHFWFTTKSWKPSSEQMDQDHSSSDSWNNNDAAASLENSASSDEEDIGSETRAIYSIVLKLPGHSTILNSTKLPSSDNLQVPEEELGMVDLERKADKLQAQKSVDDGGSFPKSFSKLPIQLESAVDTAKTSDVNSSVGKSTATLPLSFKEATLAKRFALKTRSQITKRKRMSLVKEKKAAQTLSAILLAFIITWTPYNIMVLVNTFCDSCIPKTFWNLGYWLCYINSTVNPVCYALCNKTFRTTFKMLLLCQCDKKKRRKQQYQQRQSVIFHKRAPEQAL

For `Cc1cc(F)cnc1N1CC(C)N(C(=O)CCS(=O)(=O)c2cccc3ncsc23)C(C)C1` (stereo not drawn) [Example 135, 3-(1,3-benzothiazole-7-sulfonyl)-1-[4-(5-fluoro-3-methylpyridin-2-yl)-2,6-dimethylpiperazin-1-yl]propan-1-one], the negative logarithm of the IC50 (pIC50) at human M1 receptor (setting [1]) is more than 7.00; on M2, 6.00 to 7.00; at M3 (setting [2]), 5.00 to 6.00.
Regarding `O=C(CCS(=O)(=O)c1cccc2nccn12)N1CC2CCC(C1)N2c1ccc(C(F)(F)F)cn1` [Example 136, 3-{imidazo[1,2-a]pyridine-5-sulfonyl}-1-{8-[5-(trifluoromethyl)pyridin-2-yl]-3,8-diazabicyclo[3.2.1]octan-3-yl}propan-1-one], the results for the pIC50 at human M1 receptor, at M2 and at M3 (setting [2]) were more than 7.00, 5.00 to 6.00 and 5.00 to 6.00, respectively.
Regarding `Nc1cc(N2CCN(C(=O)CCS(=O)(=O)c3cccc4ncsc34)CC2)c(Cl)cn1` [Example 137, 1-[4-(2-amino-5-chloropyridin-4-yl)piperazin-1-yl]-3-(1,3-benzothiazole-7-sulfonyl)propan-1-one], the pIC50 was 5.00 to 6.00 on human M1 receptor (setting [1]), less than 5.00 at M2 and less than 5.00 at M3 (setting [2]).
Regarding `O=C(CCS(=O)(=O)c1cccc2ncsc12)N1CCN(c2ccc(CO)cc2)CC1` [Example 138, 3-(1,3-benzothiazole-7-sulfonyl)-1-{4-[4-(hydroxymethyl)phenyl]piperazin-1-yl}propan-1-one], the pIC50 on human M1 receptor (setting [1]) is 6.00 to 7.00; at M2, less than 5.00; on M3 (setting [2]), less than 5.00.
Turning to `O=C(CCNCc1c(F)ccc2nccn12)N1CC2CCC(C1)N2c1ccncc1F` [Example 139, 3-[({6-fluoroimidazo[1,2-a]pyridin-5-yl}methyl)amino]-1-[8-(3-fluoropyridin-4-yl)-3,8-diazabicyclo[3.2.1]octan-3-yl]propan-1-one], the results for the pIC50 on human M1 receptor, on M2 and on M3 (setting [2]) were 6.00 to 7.00, less than 5.00 and less than 5.00, respectively.
With `O=C(CCS(=O)(=O)c1cccc2ncsc12)N1CC=C(c2ccc(C(F)(F)F)cn2)CC1` [Example 140, 3-(1,3-benzothiazole-7-sulfonyl)-1-[5-(trifluoromethyl)-1′,2′,3′,6′-tetrahydro-[2,4′-bipyridin]-1′-yl]propan-1-one], the figures for the pIC50 on human M1 receptor (setting [1]), at M2 and at M3 (setting [2]) were more than 7.00, 5.00 to 6.00 and 5.00 to 6.00, respectively.
For the compound `N#Cc1ccc(C2=CC3CCC(C2)N3C(=O)CCS(=O)(=O)c2cccc3ncsc23)nc1` (stereo not drawn) [Example 141, 6-{8-[3-(1,3-benzothiazole-7-sulfonyl)propanoyl]-8-azabicyclo[3.2.1]oct-2-en-3-yl}pyridine-3-carbonitrile], the pIC50 at human M1 receptor was 6.00 to 7.00; at M2, 5.00 to 6.00; at M3 (setting [2]), less than 5.00.
For the compound `N#Cc1ccc(C2CC3CCC(C2)N3C(=O)CCS(=O)(=O)c2cccc3ncsc23)nc1` (stereo not drawn) [Example 142, 6-{8-[3-(1,3-benzothiazole-7-sulfonyl)propanoyl]-8-azabicyclo[3.2.1]octan-3-yl}pyridine-3-carbonitrile], the pIC50 is 5.00 to 6.00 on human M1 receptor (setting [1]), 5.00 to 6.00 on M2 and less than 5.00 at M3 (setting [2]).
For `O=C(CCS(=O)(=O)c1cccc2nccn12)N1CC2CCC(C1)N2c1ccc(Cl)cn1` [Example 143, 1-[8-(5-chloropyridin-2-yl)-3,8-diazabicyclo[3.2.1]octan-3-yl]-3-{imidazo[1,2-a]pyridine-5-sulfonyl}propan-1-one], the figures for the pIC50 on human M1 receptor, on M2 and at M3 (setting [2]) were more than 7.00, 5.00 to 6.00 and 5.00 to 6.00, respectively.
On to `Cc1cc(C#N)ncc1N1CCN(C(=O)CCS(=O)(=O)c2cccc3nccn23)[C@@H](C)C1` [Example 144, 5-[(3S)-4-(3-{imidazo[1,2-a]pyridine-5-sulfonyl}propanoyl)-3-methylpiperazin-1-yl]-4-methylpyridine-2-carbonitrile], for which the pIC50 at human M1 receptor (setting [1]) was more than 7.00; at M2, less than 5.00; on M3 (setting [2]), less than 5.00.
Turning to `N#Cc1ccc(N2C3CCC2CN(C(=O)CCS(=O)(=O)c2cccc4ncsc24)C3)cn1` [Example 146, 5-{3-[3-(1,3-benzothiazole-7-sulfonyl)propanoyl]-3,8-diazabicyclo[3.2.1]octan-8-yl}pyridine-2-carbonitrile], the results for the pIC50 on human M1 receptor, at M2 and at M3 (setting [2]) were more than 7.00, 6.00 to 7.00 and 6.00 to 7.00, respectively.
As to `O=C(CCS(=O)(=O)c1cccc2ncsc12)N1CC2CCC(C1)N2c1ccc(C(F)(F)F)cn1` [Example 147, 3-(1,3-benzothiazole-7-sulfonyl)-1-{8-[5-(trifluoromethyl)pyridin-2-yl]-3,8-diazabicyclo[3.2.1]octan-3-yl}propan-1-one], the pIC50 on human M1 receptor, on M2 and on M3 (setting [2]) was more than 7.00 each time.
As to `O=C(CCNCc1cccc2ncsc12)N1CC2CCC(C1)N2c1ccc(C(F)(F)F)cn1` [Example 148, 3-{[(1,3-benzothiazol-7-yl)methyl]amino}-1-{8-[5-(trifluoromethyl)pyridin-2-yl]-3,8-diazabicyclo[3.2.1]octan-3-yl}propan-1-one], the values for the negative logarithm of the IC50 (pIC50) at human M1 receptor, on M2 and on M3 (setting [2]) were 6.00 to 7.00, 5.00 to 6.00 and 5.00 to 6.00, respectively.
Consider `Cn1cnc2cccc(S(=O)(=O)CCC(=O)N3CCN(c4ccc(C(F)(F)F)cn4)CC3)c21` [Example 149, 3-[(1-methyl-1H-1,3-benzodiazol-7-yl)sulfonyl]-1-{4-[5-(trifluoromethyl)pyridin-2-yl]piperazin-1-yl}propan-1-one], for which the pIC50 is more than 7.00 at human M1 receptor (setting [1]), 6.00 to 7.00 at M2 and 5.00 to 6.00 on M3 (setting [2]).
On to `N#Cc1ccc(N2C3CCC2CN(C(=O)CCNCc2cccc4nsnc24)C3)nc1` [Example 150, 6-[3-(3-{[(2,1,3-benzothiadiazol-4-yl)methyl]amino}propanoyl)-3,8-diazabicyclo[3.2.1]octan-8-yl]pyridine-3-carbonitrile], for which the pIC50 on human M1 receptor is 6.00 to 7.00; at M2 it was 5.00 to 6.00; at M3 (setting [2]), less than 5.00.
Turning to `Cc1cc(C#N)ncc1N1CCN(C(=O)CCNCc2c(F)ccc3nccn23)[C@@H](C)C1` [Example 151, 5-[(3S)-4-{3-[({6-fluoroimidazo[1,2-a]pyridin-5-yl}methyl)amino]propanoyl}-3-methylpiperazin-1-yl]-4-methylpyridine-2-carbonitrile], the pIC50 was 5.00 to 6.00 on human M1 receptor (setting [1]), 5.00 to 6.00 at M2 and less than 5.00 on M3 (setting [2]).
As to `O=C(CCNCc1c(F)ccc2nccn12)N1CC2CCC(C1)N2c1ccc(C(F)(F)F)cn1` [Example 152, 3-[({6-fluoroimidazo[1,2-a]pyridin-5-yl}methyl)amino]-1-{8-[5-(trifluoromethyl)pyridin-2-yl]-3,8-diazabicyclo[3.2.1]octan-3-yl}propan-1-one], the values for the pIC50 at human M1 receptor, at M2 and on M3 (setting [2]) were more than 7.00, 5.00 to 6.00 and less than 5.00, respectively.
With `Cc1cc(C(F)(F)F)ncc1N1CCN(C(=O)CCS(=O)(=O)c2cccc3ncsc23)[C@@H](C)C1` [Example 153, 3-(1,3-benzothiazole-7-sulfonyl)-1-[(2S)-2-methyl-4-[4-methyl-6-(trifluoromethyl)pyridin-3-yl]piperazin-1-yl]propan-1-one], the negative logarithm of the IC50 (pIC50) is more than 7.00 at human M1 receptor (setting [1]), 6.00 to 7.00 on M2 and 6.00 to 7.00 at M3 (setting [2]).
Regarding `N#Cc1ccc(N2C3COCC2CN(C(=O)CCCc2cccc4ncccc24)C3)nc1` [Example 154, 6-{7-[4-(quinolin-5-yl)butanoyl]-3-oxa-7,9-diazabicyclo[3.3.1]nonan-9-yl}pyridine-3-carbonitrile], the pIC50 was more than 7.00 on human M1 receptor, 5.00 to 6.00 on M2 and 6.00 to 7.00 against M3.
Regarding `N#Cc1ccc(N2C3CCC2CN(C(=O)CCNCc2cccc4ncccc24)C3)nc1` [Example 155, 6-[3-(3-{[(quinolin-5-yl)methyl]amino}propanoyl)-3,8-diazabicyclo[3.2.1]octan-8-yl]pyridine-3-carbonitrile], the pIC50 was 5.00 to 6.00 on human M1 receptor (setting [1]), less than 5.00 at M2 and less than 5.00 on M3 (setting [2]).
`O=C(CCNCc1cccc2ncnn12)N1CC2CCC(C1)N2c1ccc(Br)cn1` [Example 156, 1-[8-(5-bromopyridin-2-yl)-3,8-diazabicyclo[3.2.1]octan-3-yl]-3-[({[1,2,4]triazolo[1,5-a]pyridin-5-yl}methyl)amino]propan-1-one]: the pIC50 on human M1 receptor is 6.00 to 7.00; at M2 it was 5.00 to 6.00; at M3 (setting [2]), 5.00 to 6.00.

The values above are taken from patent US11512090B2, “Muscarinic acetylcholine M1 receptor antagonists” (PIPELINE THERAPEUTICS, INC., priority 2018, dated 2022).
